# Assay results taken from US12508273B2, “Beta-1,3′-galactosyllactose for the treatment of gut barrier function diseases” (N.V. Nutricia, priority 2019, dated 2025).
# How the values were obtained:
# Assay type in all cases: cell-based, human
# [1] = system: IL-8 (CXCL8) release by Caco-2 cells; test: DON-induced IL-8 (CXCL8) release by Caco-2 cells, ELISA; conditions: DON alone 4.2 M, 24 h
# Procedure: (§1) Caco-2 cell monolayers were thus grown in a transwell system, which is a model for intestinal barrier function. The monolayers were pretreated for 24 h with different GLs, including beta3′-GL, alpha3′-GL, beta4′-GL and beta6′-GL in a concentration of 0.75 wt % of the GL, before being exposed to the fungal toxin deoxynivalenol (DON), which is a trigger and model compound to impair intestinal barrier. DON was diluted to a final concentration of […] in complete cell medium and added to the apical side as well as to the basolateral side of the transwell inserts. […] Incubation with DON was 24 h.
# (§2) Measurements of the transepithelial electrical resistance (TEER) and lucifer yellow (LY) permeability were conducted to investigate barrier integrity. […] Results are expressed as a percentage of the initial value. For paracellular tracer flux assay the membrane impermeable lucifer yellow (LY) (Sigma, St Luis, MO, USA) was added in a concentration of 16 μg/ml to the apical compartment in the transwell plate for 4 h, and the paracellular flux was determined by measuring the fluorescence intensity in the basolateral compartment with a spectrophotofluorimeter (FLUOstar Optima, BMG Labtech, Offenburg, Germany) set at excitation and emission wavelengths of 410 and 520 nm, respectively. […]
# Caco-2 cells = test: Viability of Caco-2 cells exposed to DON; conditions: DON 4.2 M in complete cell medium, apical and basolateral
# Procedure: as §1
# Caco-2 cell monolayer [2] = test: Transepithelial electrical resistance (TEER) of Caco-2 monolayers after DON-induced impairment
# Procedure: (§3) Caco-2 cells were used according to established methods. In brief: cells were cultured in Dulbecco's modified Eagle medium (DMEM) and seeded at a density of 0.3×10^5 cells into 0.3 cm^2 high pore density (0.4 μm) inserts with a polyethylene terephthalate membrane (BD Biosciences, Franklin Lakes, NJ, USA) placed in a 24-well plate. The Caco-2 cells were maintained in a humidified atmosphere of 95 air and 5% CO2 at 37° C. After 17-19 days of culturing, a confluent monolayer was obtained with a mean Transepithelial electrical resistance (TEER) exceeding 400 Ωcm^2 measured by a Millicell-Electrical Resistance System voltohm-meter (Millipore, Temecula, CA, USA).
# as §1
# Measurements of the transepithelial electrical resistance (TEER) and lucifer yellow (LY) permeability were conducted to investigate barrier integrity. For TEER measurements a Millicel-ERS voltohmmeter connected to a pair of chopsticks electrodes was used to measure the TEER values. Results are expressed as a percentage of the initial value. For paracellular tracer flux assay the membrane impermeable lucifer yellow (LY) (Sigma, St Luis, MO, USA) was added in a concentration of 16 μg/ml to the apical compartment in the transwell plate for 4 h, and the paracellular flux was determined by measuring the fluorescence intensity in the basolateral compartment with a spectrophotofluorimeter (FLUOstar Optima, BMG Labtech, Offenburg, Germany) set at excitation and emission wavelengths of 410 and 520 nm, respectively. Release of interleukin-8 (IL-8 or CXCL8), which is a typical marker for inflammation, was quantified in the medium of the apical side and the basolateral side of the Caco-2 transwell inserts in response to the treatments. CXCL8 concentrations were measured by using the human IL-8 ELISA assay (BD Biosciences, Pharmingem, San Diego, CA, USA) according to manufacturer's instructions. For more details on materials and methods see Akbari et al, 2016, Eur J Nutr. 56(5):1919-1930.
# Barrier function experiments were performed in a similar way as in example 2 using the following concentrations of Vivinal GOS (VGOS): 0 (Control), 0.25 wt % (VGOS 0.25), 0.5 wt % (VGOS 0.5), 0.75 wt % (VGOS 0.75), 1 wt % (VGOS 1), 1.5 wt % (VGOS 1.5) and 2 wt % (VGOS 2). For TOS concentrations of 0.25 wt % (TOS 0.25) and 0.5 wt % (TOS 0.5) were tested.
# Caco-2 cell monolayer [3] = test: Lucifer yellow (LY) paracellular flux across Caco-2 monolayers after DON-induced impairment; conditions: GL 0.75 wt %, 24 h pretreatment, then DON 4.2 M 24 h; FIGS. 1C, 1D
# Procedure: as §3, with “USA). […]” for “USA).”
# as §2
# [4] = GL 0.75 wt %, 24 h pretreatment, then DON 4.2 M 24 h
compound,measurement,setting,value
"CC1=C[C@H]2O[C@@H]3[C@H](O)C[C@](C)([C@@]2(CO)[C@H](O)C1=O)[C@]31CO1 [DON, deoxynivalenol]",CXCL8 (IL-8) release,[1],increased CXCL8 (IL-8) release
same,viability of the Caco-2 cells,Caco-2 cells,did not affect the viability
"OC[C@H]1O[C@H](O[C@H]2[C@@H](O)[C@@H](CO)O[C@@H](O[C@H]3[C@H](O)[C@@H](O)C(O)O[C@@H]3CO)[C@@H]2O)[C@H](O)[C@@H](O)[C@H]1O (stereo partly drawn) [alpha3′-GL, Gal (alpha 1-3)-Gal (beta 1-4)-Glc]",effect on DON-induced loss of epithelial barrier integrity (TEER and LY flux),Caco-2 cell monolayer [2]; [4],did not prevent the DON-induced disrupted intestinal barrier
"OC[C@H]1O[C@@H](O[C@@H]2[C@H](O)[C@@H](O)[C@H](O[C@H]3[C@H](O)[C@@H](O)C(O)O[C@@H]3CO)O[C@@H]2CO)[C@H](O)[C@@H](O)[C@H]1O (stereo partly drawn) [beta4′-GL, Gal (beta 1-4)-Gal (beta 1-4)-Glc]",effect on DON-induced loss of epithelial barrier integrity (TEER and LY flux),Caco-2 cell monolayer [2]; [4],did not show a significant effect
"OC[C@H]1O[C@@H](OC[C@H]2O[C@@H](O[C@H]3[C@H](O)[C@@H](O)C(O)O[C@@H]3CO)[C@H](O)[C@@H](O)[C@H]2O)[C@H](O)[C@@H](O)[C@H]1O (stereo partly drawn) [beta6′-GL, Gal (beta 1-6)-Gal (beta 1-4)-Glc]",effect on DON-induced loss of epithelial barrier integrity (TEER and LY flux),Caco-2 cell monolayer [2]; [4],did not show a significant effect
Gal (beta 1-3)-Gal (beta 1-4)-Glc [beta3′-GL],concentration of beta3′-GL in TOS at which the barrier effect is observed,"Caco-2 cell monolayer [2]; Caco-2, DON challenge, beta3′-GL as part of TOS",lower than 0.17 wt %
same,effect on DON-induced loss of epithelial barrier integrity (TEER and LY flux),Caco-2 cell monolayer [2]; [4],prevented the DON-induced loss of epithelial barrier integrity
same,TEER after DON challenge,"Caco-2 cell monolayer [2]; GL 0.75 wt %, 24 h pretreatment, then DON 4.2 M 24 h, FIGS. 1A, 1B",increased TEER values
same,effect on DON-induced loss of epithelial barrier integrity (TEER and LY flux),"Caco-2 cell monolayer [2]; GL 0.75 wt %, 24 h pretreatment, then DON 4.2 M 24 h, listed as beta1,3′-galactosyllactose",prevented loss of epithelial barrier integrity to a much higher extent than other galactosyl-lactoses
same,LY flux after DON challenge,Caco-2 cell monolayer [3],reduction in the DON-affected LY flux
